The text below walks through data of patent publication US20230348437A1, “COMPOUNDS, COMPOSITIONS AND METHODS” (Denali Therapeutics Inc., priority 2020, published 2023).

The test concerns NLRP3 (IL-1β secretion from THP-1 cells). As to the kind of experiment: IL-1β secretion assay in 384-well plates, PMA differentiated THP-1 cells, LPS and nigericin stimulation. The test is classed as cell-based. The note with it: Homo sapiens; THP-1 cells, PMA 5 ng/mL, LPS 25 ng/mL, nigericin, IL-1β ELISA, 384-well; read-out: Activity. The protocol:
Compounds as provided herein were tested in the following assay. […] Freezing medium was made up of 90% FBS and 10% DMSO. THP-1 cells were removed from the liquid nitrogen and placed into a 37° C. water bath to thaw, until signs of ice dissipated. The cells were then added to 9 mL of warm cell culture medium and centrifuged for 5 minutes at 1000 rpm. The supernatant was discarded, and the cells were resuspended in new cell culture medium. The THP-1 cells were then split and cultured in the cell culture medium, being passaged every 2-3 days (5×10^5 cells/mL passaged every two days, 3×10^5 cells/mL passaged every three days). Cell density was maintained between 5×10^5-1.5×10^6 viable cells/mL.
PMA was dissolved in DMSO to make a stock solution at 5 mg/mL and stored in 10 µl aliquots at -20° C. for single use. PMA is added to normal growth medium. LPS was diluted with 1 mL of water solution to provide a 1 mg/mL stock solution and stored in 15 µl aliquots at -20° C. for single use. Nigericin is diluted in ice cold 100% ethanol to 5 mg/mL (6.7 mM) and stored in 75 µL aliquots at -20° C. for single use. […] The two control conditions used to qualify and normalize test compound dose-response curves were as follows: High Control = 25 ng/mL LPS, 5 µM Nigericin, 0.5% DMSO, Low Control = 25 ng/mL, LPS, 0.5% DMSO.
THP-1 cells were diluted to provide a suspension at a concentration of 1.0×10^6 cells/mL with the total volume of suspension required to enable the desired number of assay plates. The growth media was supplemented with PMA (5 ng/mL final concentration) and the cells were incubated at 37° C. under a humidified atmosphere of 5% CO2 for 40 h.
All media was carefully aspirated from each culture flask. The cells were washed carefully with 1x DPBS. The cells were then briefly digested with trypsin LE for 5 minutes at 23° C. and immediately resuspended in cell growth media. After resuspension, the cells were centrifuged at 1000 rpm for 3 minutes and the supernatant was discarded. The cells were resuspended in DPBS and once again centrifuged at 1000 rpm for 5 minutes. The supernatant was discarded and the cell pellet was resuspended in serum-free media supplemented with LPS (25 ng/mL final concentration) to enable the distribution of 30 K THP-1 cells within 45 µL of media into each well of 384-well PDL-coated plates. The 384-well plates were then incubated at 37° C. under a humidified atmosphere of 5% CO2 for 2 h. Following this period, test compounds were dispensed by Tecan across the desired concentration range with all wells normalized to a final 0.5 % DMSO concentration. The plates were then incubated at 37° C. under a humidified atmosphere of 5% CO2 for 1 h. Following this period, 5 µL of the […] nigericin stock solution was added to each of the appropriate wells and plates were centrifuged at 1000 rpm for 30 seconds. The plates were the immediately reintroduced to the incubator at 37° C. under a humidified atmosphere of 5% CO2 for 2 h. After this time, 35 µL/well of supernatant was collected and transferred into v-bottom plate and centrifuged at 1000 rpm for 1 minute. These supernatant aliquots were analyzed using an IL-Iβ detection kit as described below. If needed, the test samples could be snap frozen and stored at -80° C. until analyzed.
To prepare each ELISA plate, capture antibody (mAb Mt175) was diluted with PBS to a final concentration of 2 µg/mL and then 20 µL of this solution was added to each well of the ELISA plate. Each plate was allowed to incubate overnight at 4° C. The next day, the capture antibody solution was removed and discarded. […] Each ELISA plate was then allowed to incubate for 1 hour at 23° C. After this time, the blocking buffer was removed and discarded. Each ELISA plate was washed 4 times with PBST. During this time, the v-bottomed plates containing the supernatant aliquots from the assay run were centrifuged at 300 g for 5 minutes before transferring 15 µL/well of the supernatant sample to each ELISA plate. […]
Regarding `CC(C)c1nn(CC(=O)Nc2ncc(F)cc2F)c(=O)cc1-c1cc(F)cc(F)c1` [Example 45], the IC50 was 596 nM.
Consider `CC(C)c1nn(CC(=O)N[C@H]2C[C@@](C)(O)C2)c(=O)cc1-c1cccc(F)c1F` [Example 25, 2-[4-(2,3-difluorophenyl)-6-oxo-3-propan-2-ylpyridazin-1-yl]-N-(cis-3-hydroxy-3-methylcyclobutyl)acetamide], for which the IC50 came out at 1820 nM.
Under `Cc1cccc(-c2cc(=O)n(CC(=O)N[C@H]3C[C@@](C)(O)C3)nc2C(C)C)c1F` [Example 22, 2-[4-(2-fluoro-3-methylphenyl)-6-oxo-3-propan-2-ylpyridazin-1-yl]-N-(cis-3-hydroxy-3-methylcyclobutyl)acetamide] stands 1570 nM; under `O=C(Cn1nc(C2CC2(F)F)c(-c2cc(F)cc(F)c2)cc1=O)Nc1ncncc1F` (stereo not drawn) [Example 49, 2-[3-(2,2-difluorocyclopropyl)-4-(3,5-difluorophenyl)-6-oxopyridazin-1-yl]-N-(5-fluoropyrimidin-4-yl)acetamide], 3240 nM; under `Cc1c(-c2cc(F)cc(F)c2)c(C(C)C)nn(CC(=O)Nc2ncncc2F)c1=O` [Example 38, 2-[4-(3,5-difluorophenyl)-5-methyl-6-oxo-3-propan-2-ylpyridazin-1-yl]-N-(5-fluoropyrimidin-4-yl)acetamide], 812 nM.
Under `CC(C)c1nn(CC(=O)Nc2ncncc2F)c(=O)cc1-c1cc(F)cc(Cl)c1` [Example 46, 2-[4-(3-chloro-5-fluorophenyl)-6-oxo-3-propan-2-ylpyridazin-1-yl]-N-(5-fluoropyrimidin-4-yl)acetamide] stands 637 nM; under `O=C(Cn1nc(C2CC2)c(-c2cc(F)cc(F)c2)cc1=O)Nc1ncncc1F` [Example 48, 2-[3-cyclopropyl-4-(3,5-difluorophenyl)-6-oxopyridazin-1-yl]-N-(5-fluoropyrimidin-4-yl)acetamide], 1640 nM.
The result for `CC(C)c1nn(CC(=O)Nc2ncc(F)cn2)c(=O)cc1-c1cc(F)cc(F)c1` [Example 44] reads 236 nM; that for `Cc1c(-c2cccc(F)c2)c(C(C)C)nn(CC(=O)Nc2ncncc2F)c1=O` [Example 36, 2-[4-(3-fluorophenyl)-5-methyl-6-oxo-3-propan-2-ylpyridazin-1-yl]-N-(5-fluoropyrimidin-4-yl)acetamide], 1000 nM.
